Data from patent US4105603A, “Peptides which effect release of hormones” (The Salk Institute for Biological Studies, priority 1977, dated 1978).
Non-standard residues stand in square brackets, D forms with d.

What was measured:
[1] = test system: rat anterior pituitary cells; assay: In vitro bioassay: secretion of growth hormone by primary cultures of dissociated rat anterior pituitary cells; type: cell-based; conditions: cultured rat anterior pituitary cells, somatostatin = 100
Method: In vitro Bioassay: The effects of the various peptides of the invention were tested in vitro on the secretion of growth hormone by primary cultures of enzymatically dissociated rat anterior pituitary cells by the method of Vale et al., Endocrinology 91: p 562-571 (1972). The assay is made by treating pituitary glands removed from rats to separate cells therefrom. The cells are placed in culture dishes in Dulbecco's Modified Eagle Medium (Dulbecco et al., Virology, Vol. 8, p. 396, […]). Carbon dioxide gas and oxygen are supplied to the cell cultures which are maintained at 37° C for 4-5 days prior to use in the assay. Following media changes, cell cultures are incubated for a period of 4 hours and particular somatostatin peptides are added thereto. Radioimmunoassay analysis is used to determine the rate of growth hormone secretion which is expressed in nanograms per hour.
GH determinations were performed on tissue culture media utilizing the following reagents: NIAMDD rat GH standard (GH-RP-1), NIAMDD monkey anti-rat GH (GH-Serum-3), and highly purified rat GH for iodination.
(§1) All experiments were carried on in a randomized block design. Following analysis of variance difference between treatments were determined by the multiple range tests of Dunnett and Duncan. Potency values were calculated from four or six point bioassays.

[2] = test system: insulin secretion; assay: In vivo bioassay: inhibition of insulin release, portal vein plasma after i.v. peptide; design: species or system Sprague-Dawley-CD rats; conditions: rat, external jugular vein administration, somatostatin = 100
Method: (§2) An investigation of the effect of somatostatin, dihydrosomatostatin, (as controls) and the peptides of the invention to inhibit the release of glucagon and insulin was made as follows:
(§3) In vivo Bioassay: Male Sprague-Dawley-CD rats weighing 180-200 g housed in temperature and humidity controlled quarters with 14h light and 10h dark (light 0700-[…]) were used in all experiments. Animals were fed a standard ration and tap water ad libitum. Experiments were carried out at least 5 days after arrival of rats from the supplier between the hours 1400 to 1600. After ether anesthesia, peptides or saline were administered in a volume of 0.2 ml. via the external jugular vein. Animals remained anesthetized until the time of blood collection from the portal vein. […]
(§4) Plasma was stored at -20° C for insulin and glucagon determinations. Insulin levels were determined by the method of Herbert et al, […]. […] Glucagon was determined by the method of Faloona and Unger, in Jaffe et al ed., Methods of Hormone Radioimmunoassay, Academic Press, New York, 1974, p. […] was determined by the glucose oxidase method, utilizing a Beckman Glucose Analyzer.
as §1

[3] = test system: glucagon secretion; assay: In vivo bioassay: inhibition of glucagon release, portal vein plasma after i.v. peptide; design: species or system Sprague-Dawley-CD rats; conditions: rat, external jugular vein administration, somatostatin = 100
Method: as §2, §3, §4, §1

| Compound | percent effectiveness for inhibiting secretion of Growth Hormone, somatostatin taken as the base [1] [%] | percent effectiveness for inhibiting secretion of Insulin, somatostatin taken as the base [2] [%] | percent effectiveness for inhibiting secretion of Glucagon, somatostatin taken as the base [3] [%] |
| --- | --- | --- | --- |
| H-CFF[dW]KFFC-OH (cysteine pairing not given here) [desR1 D-Trp Phe desR4 desR5] | 6 | 80 | 100 |
| C[C@H](N)C(=O)NCC(=O)N[C@H]1CSSC[C@@H](C(=O)O)NC(=O)[C@H](CO)NC(=O)[C@H]([C@@H](C)O)NC(=O)[C@H](Cc2ccccc2)NC(=O)[C@H]([C@@H](C)O)NC(=O)[C@H](CCCCN)NC(=O)[C@H](Cc2c[nH]c3ccccc23)NC(=O)[C@H](Cc2ccccc2)NC(=O)[C@H](Cc2ccccc2)NC(=O)[C@H](CC(N)=O)NC(=O)[C@H](CCCCN)NC1=O [Somatostatin, somatostatin] | 100 | 100 | 100 |
